Data published in patent US20250122225A1, “MASP-2 INHIBITORS AND METHODS OF USE” (Omeros Corporation, priority 2023, published 2025).
pKi: −log10 of the molar value. Structures can show the parent of a compound that is named as a salt.

How the values were obtained:
[1] = molecular target: T1, MASP-2 (CCP1-CCP2-SP) (Homo sapiens, UniProt O00187); assay: Enzymatic assay for MASP-2 inhibitory activity (fluorogenic substrate); format: biochemical
T1 construct: 15 μL of Enzyme MASP-2 (CCP1-CCP2-SP) in Assay Buffer
In short: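 Fluorescence was normalized between no-enzyme and DMSO-only controls to derive % activity, with IC50 taken as equivalent to Ki except for tight-binding inhibitors. Reactions ran 20 min at room temperature in HEPES pH 7.4/NaCl/Tween 20 buffer, using the C2-derived fluorogenic substrate, before acetic acid stop.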

[2] = molecular target: T2, human α-thrombin (Homo sapiens, UniProt P00734); assay: Enzymatic assay for thrombin (fluorogenic peptide substrate Boc-VPR-AMC); format: biochemical
T2 construct: enzyme (human α-thrombin (BioPharm® Lab.)) in assay buffer; purchased BioPharm® Lab
In short: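 Assay conditions kept the reaction linear in time, enzyme and substrate, so IC50 approximated Ki apart from tight- or slow-binding cases. Boc-VPR-AMC cleavage by human α-thrombin proceeded 20 min at room temperature in Hepes pH 7.4/NaCl/Tween 20 buffer, then was acid-quenched and read by fluorescence.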

T1 sequence (O00187 445-686 limits assumed): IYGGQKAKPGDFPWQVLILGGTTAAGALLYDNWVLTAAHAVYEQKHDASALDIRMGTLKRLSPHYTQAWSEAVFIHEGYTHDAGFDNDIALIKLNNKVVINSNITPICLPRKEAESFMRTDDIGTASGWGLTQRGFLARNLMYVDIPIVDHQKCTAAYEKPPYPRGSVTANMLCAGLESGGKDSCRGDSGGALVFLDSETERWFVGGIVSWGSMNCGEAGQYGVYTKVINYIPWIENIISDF
T1 sequence (O00187 287-444 partner limits assumed): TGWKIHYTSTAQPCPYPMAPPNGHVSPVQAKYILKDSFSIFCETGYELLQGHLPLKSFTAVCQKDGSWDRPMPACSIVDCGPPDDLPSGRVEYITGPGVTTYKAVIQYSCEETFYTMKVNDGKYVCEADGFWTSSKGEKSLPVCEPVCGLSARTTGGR

| Structure (SMILES) | pKi [1] | pKi [2] |
| --- | --- | --- |
| CC(C)(O)c1cccc(CNc2ncc3n(c2=O)[C@H](C(=O)NCc2cc4cnccc4[nH]2)CC3)c1 [Compound 67, (S)-N-((1H-pyrrolo[3,2-c]pyridin-2-yl)methyl)-3-((3-(2-hydroxypropan-2-yl)benzyl)amino)-4-oxo-4,6,7,8-tetrahydropyrrolo[1,2-a]pyrazine-6-carboxamide] | > 6.30 | 5.60 to 6.30 |
| Cc1cc2[nH]c(CNC(=O)[C@@H]3CCc4cnc(NCc5cccc(C(C)(C)O)c5)c(=O)n43)cc2cn1 [Compound 68, (S)-3-((3-(2-hydroxypropan-2-yl)benzyl)amino)-N-((6-methyl-1H-pyrrolo[3,2-c]pyridin-2-yl)methyl)-4-oxo-4,6,7,8-tetrahydropyrrolo[1,2-a]pyrazine-6-carboxamide] | > 6.30 | < 4.60 |
| Cc1cccc([C@@H](C)Nc2ncc3n(c2=O)[C@H](C(=O)NCc2cc4cnccc4[nH]2)CC3)c1 [Compound 73, (S)-N-((1H-pyrrolo[3,2-c]pyridin-2-yl)methyl)-4-oxo-3-(((R)-1-(m-tolyl)ethyl)amino)-4,6,7,8-tetrahydropyrrolo[1,2-a]pyrazine-6-carboxamide] | > 6.30 | 4.60 to 5.00 |
| Cc1cccc([C@H](C)Nc2ncc3n(c2=O)[C@H](C(=O)NCc2cc4cnccc4[nH]2)CC3)c1 [Compound 74, (S)-N-((1H-pyrrolo[3,2-c]pyridin-2-yl)methyl)-4-oxo-3-(((S)-1-(m-tolyl)ethyl)amino)-4,6,7,8-tetrahydropyrrolo[1,2-a]pyrazine-6-carboxamide] | > 6.30 | 5.60 to 6.30 |
| Cc1ccc(F)c(CNc2ncc3n(c2=O)[C@H](C(=O)NCc2ccc(N)nc2)CC3)c1 [Compound 79, (S)-N-((6-aminopyridin-3-yl)methyl)-3-((2-fluoro-5-methylbenzyl)amino)-4-oxo-4,6,7,8-tetrahydropyrrolo[1,2-a]pyrazine-6-carboxamide] | > 6.30 | > 6.30 |
| Cc1ccccc1[C@@H](C)Nc1ncc2n(c1=O)[C@H](C(=O)NCc1cc3cnccc3[nH]1)CC2 [Compound 81, (S)-N-((1H-pyrrolo[3,2-c]pyridin-2-yl)methyl)-4-oxo-3-(((R)-1-(0-tolyl)ethyl)amino)-4,6,7,8-tetrahydropyrrolo[1,2-a]pyrazine-6-carboxamide] | > 6.30 | > 6.30 |
| Cc1ccccc1[C@@H](C)Nc1ncc2n(c1=O)[C@H](C(=O)NCc1ccc(N)nc1C)CC2 [Compound 82, (S)-N-((6-amino-2-methylpyridin-3-yl)methyl)-4-oxo-3-(((R)-1-(o-tolyl)ethyl)amino)-4,6,7,8-tetrahydropyrrolo[1,2-a]pyrazine-6-carboxamide] | > 6.30 | > 6.30 |
| Cc1ccccc1[C@H](C)Nc1ncc2n(c1=O)[C@H](C(=O)NCc1cc3cnccc3[nH]1)CC2 [Compound 83, (S)-N-((1H-pyrrolo[3,2-c]pyridin-2-yl)methyl)-4-oxo-3-(((S)-1-(o-tolyl)ethyl)amino)-4,6,7,8-tetrahydropyrrolo[1,2-a]pyrazine-6-carboxamide] | > 6.30 | 5.00 to 5.60 |
| O=C(NCc1cc2cnccc2[nH]1)[C@@H]1CCc2cnc(N3CC(c4ccccc4)C3)c(=O)n21 [Compound 84, (S)-N-((1H-pyrrolo[3,2-c]pyridin-2-yl)methyl)-4-oxo-3-(3-phenylazetidin-1-yl)-4,6,7,8-tetrahydropyrrolo[1,2-a]pyrazine-6-carboxamide] | 5.60 to 6.30 | 4.60 to 5.00 |
| Cc1cccc([C@@H](C)Nc2ncc3n(c2=O)[C@H](C(=O)NCc2cc4c(s2)CNC4)CC3)c1 [Compound 90, (S)—N-((5,6-dihydro-4H-thieno[2,3-c]pyrrol-2-yl)methyl)-4-oxo-3-(((R)-1-(m-tolyl)ethyl)amino)-4,6,7,8-tetrahydropyrrolo[1,2-a]pyrazine-6-carboxamide] | > 6.30 | 5.00 to 5.60 |
| COc1cc(C)cc(CNc2ncc3n(c2=O)[C@H](C(=O)NCc2cc4c(s2)CNC4)CC3)c1 [Compound 91, (S)-N-((5,6-dihydro-4H-thieno[2,3-c]pyrrol-2-yl)methyl)-3-((3-methoxy-5-methylbenzyl)amino)-4-oxo-4,6,7,8-tetrahydropyrrolo[1,2-a]pyrazine-6-carboxamide] | > 6.30 | > 6.30 |
| Cc1cc(C)cc([C@@H](CO)Nc2ncc3n(c2=O)[C@H](C(=O)NCc2cc4c(s2)CNC4)CC3)c1 [Compound 92, (S)-N-((5,6-dihydro-4H-thieno[2,3-c]pyrrol-2-yl)methyl)-3-(((S)-1-(3,5-dimethylphenyl)-2-hydroxyethyl)amino)-4-oxo-4,6,7,8-tetrahydropyrrolo[1,2-a]pyrazine-6-carboxamide] | > 6.30 | > 6.30 |
| Cc1ccccc1[C@@H](C)Nc1ncc2n(c1=O)[C@H](C(=O)NCc1cc3c(s1)CNC3)CC2 [Compound 93, (S)-N-((5,6-dihydro-4H-thieno[2,3-c]pyrrol-2-yl)methyl)-4-oxo-3-(((R)-1-(o-tolyl)ethyl)amino)-4,6,7,8-tetrahydropyrrolo[1,2-a]pyrazine-6-carboxamide] | > 6.30 | > 6.30 |
| Cc1ccccc1[C@H](C)Nc1ncc2n(c1=O)[C@H](C(=O)NCc1cc3c(s1)CNC3)CC2 [Compound 94, (S)-N-((5,6-dihydro-4H-thieno[2,3-c]pyrrol-2-yl)methyl)-4-oxo-3-(((S)-1-(o-tolyl)ethyl)amino)-4,6,7,8-tetrahydropyrrolo[1,2-a]pyrazine-6-carboxamide] | > 6.30 | 5.60 to 6.30 |
| Cc1cccc([C@H](C)Nc2ncc3n(c2=O)[C@H](C(=O)NCc2cc4c(s2)CNC4)CC3)c1 [Compound 95, (S)-N-((5,6-dihydro-4H-thieno[2,3-c]pyrrol-2-yl)methyl)-4-oxo-3-(((S)-1-(m-tolyl)ethyl)amino)-4,6,7,8-tetrahydropyrrolo[1,2-a]pyrazine-6-carboxamide] | > 6.30 | 5.60 to 6.30 |

Other lines, results leading:

| pKi [1] | pKi [2] | Structure (SMILES) |
| --- | --- | --- |
| > 6.30 | > 6.30 | Cc1nc(N)ccc1CNC(=O)[C@@H]1CCc2cnc(NCc3cccc(C(C)(C)O)c3)c(=O)n21 [Compound 66, (S)-N-((6-amino-2-methylpyridin-3-yl)methyl)-3-((3-(2-hydroxypropan-2-yl)benzyl)amino)-4-oxo-4,6,7,8-tetrahydropyrrolo[1,2-a]pyrazine-6-carboxamide] |
| > 6.30 | 5.60 to 6.30 | Cc1cc(F)cc(CNc2ncc3n(c2=O)[C@H](C(=O)NCc2cc4cnccc4[nH]2)CC3)c1 [Compound 70, (S)-N-((1H-pyrrolo[3,2-c]pyridin-2-yl)methyl)-3-((3-fluoro-5-methylbenzyl)amino)-4-oxo-4,6,7,8-tetrahydropyrrolo[1,2-a]pyrazine-6-carboxamide] |
| > 6.30 | > 6.30 | Cc1cc(F)cc(CNc2ncc3n(c2=O)[C@H](C(=O)NCc2ccc(N)nc2)CC3)c1 [Compound 72, (S)-N-((6-aminopyridin-3-yl)methyl)-3-((3-fluoro-5-methylbenzyl)amino)-4-oxo-4,6,7,8-tetrahydropyrrolo[1,2-a]pyrazine-6-carboxamide] |
| > 6.30 | > 6.30 | Cc1cc(C)cc([C@@H](CO)Nc2ncc3n(c2=O)[C@H](C(=O)NCc2ccc(N)nc2C)CC3)c1 [Compound 76, (S)-N-((6-amino-2-methylpyridin-3-yl)methyl)-3-(((S)-1-(3,5-dimethylphenyl)-2-hydroxyethyl)amino)-4-oxo-4,6,7,8-tetrahydropyrrolo[1,2-a]pyrazine-6-carboxamide] |
| > 6.30 | > 6.30 | Cc1ccc(F)c(CNc2ncc3n(c2=O)[C@H](C(=O)NCc2ccc(N)nc2C)CC3)c1 [Compound 77, (S)-N-((6-amino-2-methylpyridin-3-yl)methyl)-3-((2-fluoro-5-methylbenzyl)amino)-4-oxo-4,6,7,8-tetrahydropyrrolo[1,2-a]pyrazine-6-carboxamide] |
| > 6.30 | 4.60 to 5.00 | Cc1ccc(F)c(CNc2ncc3n(c2=O)[C@H](C(=O)NCc2cc4cnc(C)cc4[nH]2)CC3)c1 [Compound 80, (S)-3-((2-fluoro-5-methylbenzyl)amino)-N-((6-methyl-1H-pyrrolo[3,2-c]pyridin-2-yl)methyl)-4-oxo-4,6,7,8-tetrahydropyrrolo[1,2-a]pyrazine-6-carboxamide] |
| 5.60 to 6.30 | < 4.60 | Cc1cc(C)cc(CNc2ncc3n(c2=O)[C@H](C(=O)NCc2ccncc2)CC3)c1 [Compound 86, (S)-3-((3,5-dimethylbenzyl)amino)-4-oxo-N-(pyridin-4-ylmethyl)-4,6,7,8-tetrahydropyrrolo[1,2-a]pyrazine-6-carboxamide] |
| > 6.30 | > 6.30 | Cc1cc(C)cc(CNc2ncc3n(c2=O)[C@H](C(=O)NCc2ccc(N)nc2)CC3)c1 [Compound 87, (S)-N-((6-aminopyridin-3-yl)methyl)-3-((3,5-dimethylbenzyl)amino)-4-oxo-4,6,7,8-tetrahydropyrrolo[1,2-a]pyrazine-6-carboxamide] |
| 5.00 to 5.60 | < 4.60 | Cc1cc(C)cc(CNc2nc(Cl)c3n(c2=O)[C@H](C(=O)NCc2cccnc2C)CC3)c1 [Compound 89, trifluoroacetate] |
| > 6.30 | > 6.30 | Cc1cc(C)cc(CNc2ncc3n(c2=O)[C@H](C(=O)NCc2cc4c(s2)CNC4)CC3)c1 [Compound 96, (S)-N-((5,6-dihydro-4H-thieno[2,3-c]pyrrol-2-yl)methyl)-3-((3,5-dimethylbenzyl)amino)-4-oxo-4,6,7,8-tetrahydropyrrolo[1,2-a]pyrazine-6-carboxamide] |
